Results taken from patent US8901175B2 (priority 2008, dated 2014).
Structures can show the parent of a compound that is named as a salt. Residues, ends and D or L forms follow the SMILES beside them. *: point of attachment. Cbz = O=C(OCc1ccccc1)*; CH2F = FC*

How the values were obtained:
[1] = system: human lymphoblastic leukaemia T-cell line CEM; experiment: Induction of apoptosis in CEM cells, flow cytometry (hypodiploid DNA); assay type: cell-based; conditions: 30, 20, 15, 10 μM methadone, 24 h and 48 h
[2] = system: human myeloid leukaemia cell line HL-60; experiment: Induction of apoptosis in HL-60 cells, flow cytometry (hypodiploid DNA); assay type: cell-based; conditions: 30, 20, 15, 10 μM methadone, 24 h and 48 h
[3] = system: doxorubicin-resistant CEM leukaemia cells (CEM^DoxoR); experiment: Induction of apoptosis in doxorubicin-resistant CEM cells; assay type: cell-based, human; conditions: 30, 20, 15 μM methadone, 24 h and 48 h
[4] = system: CD95-resistant leukaemia cells CEM^CD95R; experiment: Induction of apoptosis in CD95-resistant CEM cells; assay type: cell-based, human; conditions: 30, 20, 15 μM methadone, 24 h and 48 h
[5] = system: HL-60 leukaemia cells; experiment: Western blot analysis in HL-60 cells; assay type: cell-based, human; conditions: 20, 15 μM methadone, 24 h and 48 h
[6] = system: CEM leukaemia cells; experiment: Western blot analysis in CEM cells; assay type: cell-based, human; conditions: 20, 15 μM methadone, 24 h and 48 h
[7] = system: doxorubicin-resistant leukaemia cells CEM^DoxoR; experiment: Western blot analysis in CEM^DoxoR cells; assay type: cell-based, human; conditions: 20, 15 μM methadone, 24 h and 48 h
[8] = system: CD95-resistant leukaemia cells CEM^CD95R; experiment: Western blot analysis in CEM^CD95R cells; assay type: cell-based, human; conditions: 20, 15 μM methadone, 24 h and 48 h
[9] = system: leukaemia cells; experiment: Western blot analysis in leukaemia cells (caspase-8, Bax, CD95); assay type: cell-based, human
From the text: Western blot analyses were done as described (Friesen et al. 2004, Friesen et al. 2003). Immunodetection of PARP, caspase-3, caspase-9, caspase-8, XIAP, CD95, CD95-L, Bax, Bcl-xL and β-actin was done using rabbit anti-PARP polyclonal antibody (1:5000, Roche), mouse-anti-caspase-3 monoclonal antibody (1:1000, Cell-Signalling), mouse-anti-caspase-8 monoclonal antibody (1:1000, Cell-Signalling), rabbit- anti-active-caspase-9 polyclonal antibody (1:1000, Cell-Signalling), mouse-anti-XIAP monoclonal antibody (1:1000, Transduction-Laboratories, Lexington, Ky.), mouse-anti-Fas (anti-CD95) monoclonal antibody (1:1000, Transduction-Laboratories), mouse-anti-Fas ligand (anti-CD95-ligand) monoclonal antibody (1:250, BD, Pharmingen), rabbit-anti-Bax polyclonal antibody (1:250, Oncogene, Cambridge), rabbit-anti-Bcl-XS/L. polyclonal antibody (1:1000, Santa-Cruz-Biotechnology, Santa-Cruz, Calif.), rabbit-anti-p21 polyclonal antibody (1:1000, Santa-Cruz), and mouse anti-β-actin monoclonal antibody (Sigma). Peroxidase-conjugated goat-anti-mouse IgG or peroxidase-conjugated goat-anti-rabbit IgG (1:5000, Santa-Cruz) as secondary antibody were used for the enhanced chemoluminescence system (ECL, Amersham-Pharmacia, Freiburg, Germany). Equal protein loading was controlled by β-actin detection.

[10] = system: human glioblastoma cell line A172; experiment: Induction of apoptosis in A172 glioblastoma cells, flow cytometry; assay type: cell-based
[11] = system: B-ALL (B-Cell lymphatic leukaemia) cells; experiment: Induction of apoptosis in B-ALL cells isolated from patients ex vivo; assay type: cell-based, human; conditions: B-ALL patient cells; 10 μM methadone; 72 h
[12] = system: Human acute myeloid leukaemia HL-60 cell line; experiment: Induction of apoptosis in HL-60 cell line (5000 cells/100 μl), long incubation, flow cytometry; assay type: cell-based
[13] = system: CEM cells; experiment: Inhibition of methadone induced apoptosis by zVAD.fmk in CEM cells; assay type: cell-based, human; conditions: 50 μM zVAD.fmk, preincubated 1 h before methadone
[14] = system: HL-60 cells; experiment: Inhibition of methadone induced apoptosis by zVAD.fmk in HL-60 cells; assay type: cell-based, human; conditions: 50 μM zVAD.fmk, preincubated 1 h before methadone
[15] = leukaemia cells after methadone treatment
[16] = 1 μg/mL methadone in addition of 0.1 μg/mL doxorubicin, 72 h

For `CCC(=O)C(CC(C)N(C)C)(c1ccccc1)c1ccccc1` (racemic) [methadone, D, L-methadone hydrochloride], the induction of apoptosis [1] was “strong induction of apoptosis”, the induction of apoptosis [2] was “strong induction of apoptosis” and the induction of apoptosis [3] was “strong induction of apoptosis”. For the same compound, the induction of apoptosis [4] was “strong induction of apoptosis”, the “down regulation of Bcl-xL” value [5] was “strong down regulation” and the “down regulation of XIAP” value [5] was “strong down regulation”. For the same compound, the “down regulation of Bcl-xL” value [6] was “strong down regulation”, the “down regulation of XIAP” value [6] was “strong down regulation” and the “down regulation of Bcl-xL” value [7] was “strong down regulation”. For the same compound, the “down regulation of XIAP” value [7] was “strong down regulation”, the “down regulation of Bcl-xL” value [8] was “strong down regulation” and the “down regulation of XIAP” value [8] was “strong down regulation”. The “Activation of caspase-8” value [9, 15] was “not found”, the “Up regulation of Bax” value [9, 15] was “not found” and the “up regulation of death-inducing ligands and death-inducing receptors such as CD95” value ([9]; leukaemia cells after methadone treatment (data not shown)) was “not found”. The “apoptotic effect of the combination with doxorubicin” value [10, 16] was “strong apoptotic effect”, the synergy with doxorubicin [10, 16] was “synergistic effects” and the “dead cells (specific cell death)” value ([10]; 20 μg/mL methadone, 120 h) was “more than 20%”. The “dead cells (specific cell death)” value ([10]; 20 μg/mL methadone, 168 h) was “more than 80%”, the “dead cells (specific cell death)” value ([10]; 30 μg/mL methadone, 120 h) was “more than 85%” and the “dead cells (specific cell death)” value ([10]; 30 μg/mL methadone, 168 h) was about 100%. For the same compound, the “apoptosis, cells” value [11] was “over 80%”.

In the case of `CN1CC[C@]23c4c5ccc(O)c4O[C@H]2[C@@H](O)C=C[C@H]3[C@H]1C5` [morphine, Morphine], the “apoptosis, cells” value ([12]; HL-60, first study, 40 μg/mL morphine, 144 h) is reported as 40%, the “apoptosis, cells” value ([12]; HL-60, second study, 1 μg/mL morphine, 168 h) is reported as “more than 50%” and the “apoptosis, cells” value ([12]; HL-60, third study, 1 μg/mL morphine in combination with 0.001 μg/mL doxorubicin, 168 h) is reported as 50%.

With `CC(C)[C@H](NC(=O)OCc1ccccc1)C(=O)N[C@@H](C)C(=O)N[C@@H](CC(=O)O)C(=O)CF` [zVAD.fmk, benzoyl carbonyl-Val-Ala-Asp-fluoromethyl ketone] (Cbz-Val-Ala-Asp-CH2F) the “inhibition of methadone-induced apoptosis” value [13] was “almost completely inhibited” and the “inhibition of methadone-induced apoptosis” value [14] was “almost completely inhibited”.
